Measurements published in patent publication US5147604A, “Dioxo-aromatic compounds as oxygen scavengers” (Betz Laboratories, Inc., priority 1988, dated 1992).

Columns and labels:
[1] = Oxygen scavenging efficacy at elevated temperature and pressure in hot water flow system (Example 1, TABLE 1); conditions: for % O2 Removed: 78°±3°C, 4±1 psig, contact 4±0.2 min, feedwater concentration, pH and initial O2 (ppm) vary by line of TABLE 1, values below 20% may be experimental artifacts; for oxygen scavenging (in words): test water, TABLE 1
Experimental: In a first series of tests, the oxygen scavenging efficacies of various materials were evaluated under conditions of elevated temperature and pressure. The test apparatus used was essentially a stainless steel hot water flow system equipped with appropriate monitoring instrumentation. Demineralized feedwater, adjusted to the appropriate pH and initial dissolved oxygen level (controlled by nitrogen sparging), was pumped from a reservoir at ambient temperature into a once-through heater. Temperature was monitored continuously by means of thermocouples at several locations along the length of the flow tubing. A solution containing the oxygen scavenger test material was loaded into a pump driven syringe and fed continuously to the heated flow stream through a port containing a stainless steel ribbon mixing baffle. The feedwater containing dissolved oxygen and the test material then traversed the flow tubing via a by-pass comprising an additional length of coiled tubing. Contact (or reaction) time of the test material and dissolved oxygen was governed by the choice of coil length. The tendency of the temperature to drop during residence in the coiled tubing was offset by the use of thermostatted heating tapes which maintained the temperature in this tubing at 78°±3°C. Upon exiting the coiled tubing, the stream flowed through a sample cooler to render the temperature of the liquid compatible with the operating range of a membrane-type dissolved oxygen probe. The cooled liquid was analyzed for dissolved oxygen via a D.O. flow cell, and pH was potentiometrically monitored in the flow tube immediately downstream of the D.O. probe. Outputs of the temperature, pH and dissolved oxygen probes during operation were monitored via strip chart recorders. The final destination of the reaction mixture was a reservoir which could be drained for analysis of reaction products, if desired.
Temperature in the system could be maintained at 78°±3° C. under 4±1 psig. Residence time of the feedwater in the flow tube from chemical feed point to D.O. flow cell outlet was 4±0.2 minutes. […] Entry into and residence in the sample cooler accounted for 0.5 minute of the total contact time. […]
The test solutions were prepared by initially mixing 10 grams of test material and 90 grams of demineralized water in glass bottles and allowing the mixture to remain in a shaker for several hours. If complete dissolution for a given material was observed after shaking, the pH of the solution was measured. When the pH of the solution was below 10.0, 7N sodium hydroxide was added dropwise until this value was reached. The quantity of added sodium hydroxide was recorded and later used in corrections for the active concentration of the solution. When the pH value of a stock solution was above pH 10.0 without requiring the addition of caustic, the solution was not further modified.
Results of these tests are reported in TABLE 1 below in terms of percent oxygen removed from the test stream. The precision of the initial and final dissolved oxygen values reported is approximately ±10%. […] The experimental uncertainties decrease with increasing values of percent dissolved oxygen removal.

[2] = Oxygen scavenging in feedwater of a working boiler, field-type conditions (Example 2, TABLES 2 and 3); conditions: TABLE 2, actives 1.0-2.2 ppm, pH 8.7-9.4, steam load 11 or 15 (1000 lbs./hr.), initial O2 3.8-8 ppb by line
[3] = to nitrogen, hydrogen and ammonia; cited from earlier work
[4] = tested on: test rats; conditions: NIOSH Registry of Toxic Effects of Chemical Substances (1976); cited from earlier work
[5] = Thermal decomposition studies of aqueous solutions in autoclaves (Example 5, TABLE 6); conditions: hydrazine 60 ppm, 4 hours
[6] = Low (room) temperature reactivity with oxygen (Example 4, TABLE 5); conditions: mole ratio of treatment to O2 and initial O2 by line of TABLE 5; for % O2 Removed, 1 Minute: room temperature 22.5-26.5 °C, pH 8.6-10.0; for % O2 Removed, 5 Minutes: room temperature 24.0-26.5 °C, pH 9.1-10.0
From the text: In a further series of tests, the low (room) temperature reactivities with oxygen of various dioxo compounds were compared to that of hydrazine. The test apparatus basically consisted of a 1 liter three-necked flask fitted with a dissolved oxygen probe and a pH electrode. The intent of this apparatus was to show reaction kinetics differences rather than precise measurements (within seconds) of reaction times.
The flask was filled with deionized water which had been stripped of some dissolved oxygen by bubbling nitrogen through a diffuser stone. The pH was adjusted to the desired level with sodium hydroxide. The flask was sealed with a rubber septum, the dissolved oxygen probe and an inlet stopper. A magnetic stirrer bar was left in the flask for mixing. The mixer was turned on, and dissolved oxygen and temperature readings were recorded until the dissolved oxygen reached a constant value. Next, the appropriate quantity of additive was injected through the septum using a hypodermic syringe. The initial mole ratio of treatment to dissolved oxygen was determined by weighing feed chemical and measuring the oxygen concentration. […] Dissolved oxygen and temperature readings were then taken at appropriate time intervals.
The results of these tests are provided below in TABLE 5 in terms of relative amounts of % oxygen removed at the time intervals indicated (1 and 5 minutes).

## Cc1ccccc1O [o-cresol]
[1]
  % O2 Removed: 17%

## Oc1cccc(O)c1 [resorcinol]
[1]
  oxygen scavenging (in words): ineffective

## O=C1C=CC(=O)c2ccccc21 [1,4-naphthoquinone]
[1]
  % O2 Removed: 99%
[2]
  % O2 Removed: 88%

## O=C(O)c1ccc(O)cc1 [p-hydroxybenzoic acid]
[1]
  % O2 Removed: 13%

## O=Cc1ccc(O)cc1O [2,4-dihydroxybenzaldehyde]
[1]
  % O2 Removed: 14%
  oxygen scavenging (in words): ineffective

## O=Cc1cc(O)ccc1O [2,5-dihydroxybenzaldehyde]
[1]
  % O2 Removed: 98%

## O=Cc1ccc(O)c(O)c1 [3,4-dihydroxybenzaldehyde]
[1]
  % O2 Removed: 73 ± 2%

## Nc1ccc(N)cc1 [p-phenylenediamine]
[1]
  oxygen scavenging (in words): ineffective

## Oc1ccc(-c2ccccc2)cc1 [p-phenylphenol]
[1]
  % O2 Removed: 40%

## NN [hydrazine]
[3]
  temperature above which it decomposes: Above 400 ° F.
[4]
  LD50 Oral Rat: 60 mg/kg
[5]; 0 psig, 70 °F.
  % Decomposition: 0%
[5]; 1100 psig, 550 °F.
  % Decomposition: 52%
[5]; 1620 psig, 600 °F.
  % Decomposition: 79%
[5]; 2000 psig, 636 °F.
  % Decomposition: 93%

## O=C1C=CC(=O)C=C1 [benzoquinone]
[1]
  % O2 Removed: 96%
  oxygen scavenging (in words): quite efficacious as an oxygen scavenger
[6]
  % O2 Removed, 1 Minute: 76%
  % O2 Removed, 5 Minutes: 90%
[2]
  % O2 Removed: 57%

## CC(C)(C)c1ccc(O)c(O)c1 [4-tert-butylcatechol]
[1]
  % O2 Removed: 97%
[4]
  LD50 Oral Rat: 2820 mg/kg
[2]
  % O2 Removed: 37%

## Nc1ccccc1N [o-phenylenediamine]
[1]
  oxygen scavenging (in words): ineffective

## Oc1ccccc1O [catechol]
[1]
  % O2 Removed: 96%
[6]
  % O2 Removed, 1 Minute: 7%
  % O2 Removed, 5 Minutes: 30%
[4]
  LD50 Oral Rat: 3890 mg/kg
[2]
  % O2 Removed: 75%

## O=[N+]([O-])c1ccccc1O [2-nitrophenol]
[1]
  % O2 Removed: 0%

## COc1ccc(O)cc1 [p-methoxyphenol]
[1]
  % O2 Removed: 40%

## Oc1ccc(O)cc1 [hydroquinone]
[4]
  LD50 Oral Rat: 320 mg/kg
